Results published in article PMC9232612, “A phase 1b randomised controlled trial of a glucagon-like peptide-1 and glucagon receptor dual agonist IBI362 (LY3305677) in Chinese patients with type 2 diabetes” (Nature Communications, 2022).
Values joined by “and” are separate entries in the source; they are usually repeats but may differ in a detail not shown here. Equal entries are not always repeated.

Columns and labels:
Assay type in all cases: in vivo, human
[1] = tested on: Chinese patients with T2D; test: Glycated haemoglobin A1c (HbA1c); conditions: for Change from baseline in HbA1c, LS mean / Change from baseline in HbA1c, LS mean (SE): n=8; for Change from baseline in HbA1c, LS mean / Change from baseline in HbA1c, LS mean (SE) / HbA1c: ETD versus placebo, LS mean (90% CI): MMRM
Procedure: (§1) HbA1c (2200101, Bio-Rad, USA), blood glucose (05168791190, Roche Diagnostics, Germany), insulin (12017547122, Roche Diagnostics, Germany), C peptide (03184897190, Roche Diagnostics, Germany), total GLP-1 (GLP-1 [7–36] amide and its metabolite, GLP-1 [9–36] amide, 10-1278-01, Mercodia AB, Sweden) and OXM (AL-139, AnshLabs, USA) tests were performed according to the manufactures’ instruction manuals in a central laboratory (KingMed Diagnostics, Guangzhou, China). HbA1c was measured using a Bio-rad D-100 Haemoglobin Testing System (Bio-rad). Blood glucose was measured using a Roche Cobas c702 analyser (Roche Diagnostics). Insulin and C peptide were measured using a Roche […] analyser (Roche Diagnostics). GLP-1 and OXM were measured using a Tecan Infinite M Plex microplate reader (TECAN).
(§2) Standard non-compartmental pharmacokinetics methods were used to analyze IBI362 plasma concentration data using Pkanalix 2020R1 (Lixoft, Antony, France). Secondary efficacy outcomes included change from baseline to week 12 in HbA1c, fasting plasma glucose (FPG), fasting insulin levels, change from baseline to week 12 in post-mixed-meal tolerance test (post-MTT) glucose, insulin, C peptide, GLP-1 and OXM levels, as well as seven-point self-measured blood glucose (SMBG) profile.
(§3) The analyses for change from baseline in HbA1c, FPG, post-MTT glucose AUC0–4 h and body weight were performed using the mixed-effect model for repeated measures (MMRM) with least-squares means and standard error provided. The MMRM included the corresponding baseline value, treatment, visit and treatment-by-visit as fixed effects and patient as a random effect. Mean change or mean percent change from baseline were analysed using a restricted maximum likelihood (REML)‐based repeated measures approach in combination with the Newton Raphson Algorithm. The fix effect of visit was fitted as a repeated effect and an unstructured covariance matrix was used. In case of non-converge, matrix like Variance Components and Compound Symmetry will be tested in a subsequent order until model‐convergence is achieved. The Kenward-Roger degree of freedom was used in estimating fixed effects. No missing data imputation was conducted. For HbA1c, FPG and body weight, point estimate of treatment difference versus placebo and 90% CI were provided for each IBI362 dose group and the dulaglutide group, with nominal p values.

[2] = tested on: Chinese patients with T2D; test: Fasting plasma glucose (FPG); conditions: MMRM; for Change from baseline in fasting plasma glucose, LS mean / Change from baseline in fasting plasma glucose, LS mean (SE): n=8; for Change from baseline in fasting plasma glucose, LS mean (SE) / Fasting plasma glucose: ETD versus placebo, LS mean (90% CI): week 12
Procedure: as §1, §2, §3

[3] = tested on: Chinese patients with T2D; test: Blood pressure (systolic, diastolic); conditions: mean
From the text: (§4) Primary outcomes of the study were the safety and tolerability of IBI362. Safety assessment included adverse events, physical examinations, laboratory tests (including lipase, amylase and calcitonin level measures), vital signs and 12-lead electrocardiogram. Adverse events were categorized according to the Medical Dictionary for Regulatory Activities system organ classes (SOCs) and preferred terms. Treatment-emergent adverse events (TEAEs) were monitored from the time of informed consent to the safety follow-up period. The severity of TEAEs (mild, moderate or severe) and the association between an event and the study drug were assessed by investigators based on pre-specified criteria.
Fig. S7: Change from baseline in waist circumference, BMI and blood pressure at week 12. a. CFB in waist circumference at week 12. b. CFB in BMI at week 12. c. CFB in blood pressure at week 12. Data are plotted as means +/- SD. a. IBI362 3.0 mg n = 7; IBI362 4.5 mg n = 5; IBI362 6.0 mg n = 8; Pooled placebo n = 11; Dulaglutide n = 6. b. IBI362 3.0 mg n = 7; IBI362 4.5 mg n = 5; […]
mg n = 6; IBI362 6.0 mg n = 8; Pooled placebo n = 11; Dulaglutide n = 6. BMI = body-mass index; CFB = change from baseline; DBP = diastolic blood pressure; SBP = systolic blood pressure; SD = standard deviation. Source data are provided as a Source Data file.
CFB in BMI at week 12 (kg/m2), […]
at week 12 (mm Hg), mean (SD)
CFB in waist circumference at week 12 (cm), mean (SD) […]

[4] = tested on: Chinese patients with T2D; test: Change from baseline in heart rate, standard 12-lead electrocardiogram
From the text: as §4
CFB in heart rate (beats/min),
Fig. S1: Change from baseline in heart rate over time.
Data are from standard 12-lead electrocardiogram, measured at 1 hour before each dose in the morning from week 0 to week 11, and 168 hours after the last dose (week 12). Data are plotted as means +/- SD. CFB = change from baseline; SD = standard deviation.Source data are provided as […]
(1 picture or pasted object on this page, not shown here)

[5] = each line a single patient, 4.5 mg cohort

## CC(C)C[C@H](NC(=O)[C@H](CC(C)C)NC(=O)[C@H](Cc1c[nH]c2ccccc12)NC(=O)[C@H](CCC(=O)O)NC(=O)[C@@H](NC(=O)[C@H](Cc1ccccc1)NC(=O)[C@H](CCC(=O)O)NC(=O)[C@H](CCCCNC(=O)COCCOCCNC(=O)COCCOCCNC(=O)CC[C@H](NC(=O)CCCCCCCCCCCCCCCCCCC(=O)O)C(=O)O)NC(=O)[C@H](C)NC(=O)[C@H](CCCCN)NC(=O)[C@H](CCCCN)NC(=O)[C@H](CCC(=O)O)NC(=O)[C@H](CC(=O)O)NC(=O)[C@H](CC(C)C)NC(=O)[C@H](Cc1ccc(O)cc1)NC(=O)[C@H](CCCCN)NC(=O)[C@H](CO)NC(=O)[C@H](Cc1ccc(O)cc1)NC(=O)[C@H](CC(=O)O)NC(=O)[C@H](CO)NC(=O)[C@@H](NC(=O)[C@H](Cc1ccccc1)NC(=O)[C@@H](NC(=O)CNC(=O)[C@H](CCC(N)=O)NC(=O)C(C)(C)NC(=O)[C@@H](N)Cc1c[nH]cn1)[C@@H](C)O)[C@@H](C)O)C(C)C)C(=O)N[C@@H](CCC(=O)O)C(=O)NCC(=O)NCC(=O)N1CCC[C@H]1C(=O)N[C@@H](CO)C(=O)N[C@@H](CO)C(=O)NCC(N)=O [IBI362]
[1]; [5]
  Change from baseline to week 12 in HbA1c, single patients: -1.2% and -1.7% and -2.3% and -3.3% and -3.7%
  HbA1c at week 12, single patients: 6.1% and 6.3% and 5.7% and 6.9% and 6.8% and 6.0%
[1]; each line a single patient, 6.0 mg cohort
  HbA1c at week 12, single patients: 7.0% and 6.8% and 5.9% and 6.1% and 7.1% and 5.8% and 7.8%
[1]; week 4, 3.0 mg cohort
  Change from baseline in HbA1c, LS mean: -0.38%
[1]; week 4, 4.5 mg cohort
  Change from baseline in HbA1c, LS mean: -0.80%
[1]; week 4, 6.0 mg cohort
  Change from baseline in HbA1c, LS mean: -0.61%
[1]; week 8, 3.0 mg cohort
  Change from baseline in HbA1c, LS mean: -0.98%
[1]; week 8, 4.5 mg cohort
  Change from baseline in HbA1c, LS mean: -1.58%
[1]; week 8, 6.0 mg cohort
  Change from baseline in HbA1c, LS mean: -1.32%
[1]; week 12, 3.0 mg cohort
  Change from baseline in HbA1c, LS mean (SE): -1.46%
  HbA1c: ETD versus placebo, LS mean (90% CI): −0.59%
[1]; week 12, 4.5 mg cohort
  Change from baseline in HbA1c, LS mean (SE): -2.23%
  HbA1c: ETD versus placebo, LS mean (90% CI): −1.35%
[1]; week 12, 6.0 mg cohort
  Change from baseline in HbA1c, LS mean (SE): -1.66%
  HbA1c: ETD versus placebo, LS mean (90% CI): −0.79%
[1]; week 12, all IBI362 cohorts
  patients achieving HbA1c level of 6.5% or lower: nine
[1]; week 12, all IBI362 cohorts, n=24
  patients achieving ≥1.5% reductions in HbA1c from baseline: 62.5%
[2]; week 4, 3.0 mg cohort
  Change from baseline in fasting plasma glucose, LS mean: -2.29 mmol/L
[2]; week 4, 4.5 mg cohort
  Change from baseline in fasting plasma glucose, LS mean: -2.47 mmol/L
[2]; week 4, 6.0 mg cohort
  Change from baseline in fasting plasma glucose, LS mean: -3.03 mmol/L
[2]; week 8, 3.0 mg cohort
  Change from baseline in fasting plasma glucose, LS mean: -2.95 mmol/L
[2]; week 8, 4.5 mg cohort
  Change from baseline in fasting plasma glucose, LS mean: -3.38 mmol/L
[2]; week 8, 6.0 mg cohort
  Change from baseline in fasting plasma glucose, LS mean: -3.50 mmol/L
[2]; 3.0 mg cohort
  Change from baseline in fasting plasma glucose, LS mean (SE): −3.38 (0.49) mmol/L and −3.38 mmol/L
  Fasting plasma glucose: ETD versus placebo, LS mean (90% CI): -0.85 mmol/L
[2]; 4.5 mg cohort
  Change from baseline in fasting plasma glucose, LS mean (SE): -3.82 mmol/L
  Fasting plasma glucose: ETD versus placebo, LS mean (90% CI): -1.30 mmol/L
[2]; 6.0 mg cohort
  Change from baseline in fasting plasma glucose, LS mean (SE): -4.07 mmol/L
[3]; IBI362 3.0 mg
  Change from baseline to week 12 in blood pressure, diastolic: -1.4 mm Hg
  Change from baseline to week 12 in blood pressure, systolic: -8.1 mm Hg
[3]; IBI362 4.5 mg
  Change from baseline to week 12 in blood pressure, diastolic: -5.2 mm Hg
  Change from baseline to week 12 in blood pressure, systolic: -6.7 mm Hg
[3]; IBI362 6.0 mg
  Change from baseline to week 12 in blood pressure, diastolic: 2.3 mm Hg
  Change from baseline to week 12 in blood pressure, systolic: -3.3 mm Hg
[4]; 3.0 mg cohort
  heart rate, mean change from baseline (bound): < 10 beats per minute
[4]; 6.0 mg cohort
  heart rate, mean change from baseline (bound): < 15 beats per minute
[4]; patients receiving IBI362
  heart rate increase (up to): 10-15 beats per minute
